In general, Cmax refers to the maximum level reached in the sampled fluid or tissue.

pIC50: −log10 of the molar value. “And” between values parts separate entries of the source, which are not always exact repeats. Identical values can stand only once. Like-named read-outs stand apart in the source and are kept apart here.

One series deals with T1, EphrinB2-EphB1 (Homo sapiens, UniProt P54762).
T1 construct: soluble human EphB1-His, EphB2-His, and EphB4-His ectodomains; commercially available human EphrinB1-Fc (EB1), EphrinB2-Fc (EB2), and EphrinB3-Fc (EB3) ectodomain proteins; purchased
T1 sequence (P54762 18-540 limits assumed): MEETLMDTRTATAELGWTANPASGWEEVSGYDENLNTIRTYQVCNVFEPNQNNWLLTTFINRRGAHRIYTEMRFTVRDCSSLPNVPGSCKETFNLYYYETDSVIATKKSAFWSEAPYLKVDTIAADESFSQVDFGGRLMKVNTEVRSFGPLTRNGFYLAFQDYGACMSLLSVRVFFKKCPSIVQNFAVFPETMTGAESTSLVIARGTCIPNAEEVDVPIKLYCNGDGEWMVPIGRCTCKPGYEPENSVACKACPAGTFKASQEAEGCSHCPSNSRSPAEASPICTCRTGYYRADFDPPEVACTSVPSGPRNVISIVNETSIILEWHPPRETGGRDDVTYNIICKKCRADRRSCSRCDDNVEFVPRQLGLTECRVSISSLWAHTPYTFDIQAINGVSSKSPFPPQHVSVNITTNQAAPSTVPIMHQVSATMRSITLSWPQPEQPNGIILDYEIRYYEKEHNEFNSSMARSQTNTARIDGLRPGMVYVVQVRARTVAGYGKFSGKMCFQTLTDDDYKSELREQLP
The series is described as follows: Octet, immobilized human EphrinB2 binding to 50 nM soluble human EphB1. How it is done:
Studies were conducted to confirm that A20 chemicals can effectively target the human Eph/Ephrin proteins. Octet system was used to first characterize the biophysical interactions of the human B class Eph and Ephrin proteins, and then was tested to assess how A20 may disrupt the interactions. Since the human and rodent proteins are highly conserved, and essentially identical, with EphB2 sharing 99.5% identity between human and mouse, with only 5 of ~1,000 amino acids different, any species-specific differences were not anticipated. Therefore, commercially available human EphrinB1-Fc (EB1), EphrinB2-Fc (EB2), and EphrinB3-Fc (EB3) ectodomain proteins were sparsely immobilized onto biosensors and then exposed to 50 nM of soluble human EphB1-His, EphB2-His, and EphB4-His ectodomains for 800 sec association and 1,000 sec dissociation steps with a total of nine different interactions analyzed. In the absence of A20 chemical, the immobilized human EphrinB proteins bound to their appropriate human EphB target proteins; with EphrinB1 only bound EphB1 and EphB2, EphrinB2 bound all three EphB1, EphB2, and EphB4, and EphrinB3 only bound EphB1 and EphB2 (FIG. 19A-19B).
The Octet studies shown in FIG. 19A-19F, and FIG. 20A-20C, and Table 2 using human proteins involved runs in which 1, 10, and 100 μM concentrations of the A20.2×HCl salt were included to determine how compound would affect binding kinetics. The sensorgrams for immobilized human EphrinB2 binding to EphB2 and EphB4 with 0, 1, 10, and 100 μM concentrations of A20 salt provide good examples of how the compound can alter Eph-Ephrin protein-protein interaction dynamics. […] This indicates the effective/relative IC50 for A20 is well below 1 μM (more accurate IC50 calculations are provided below). Notwithstanding, if just the sensorgram responses for 0 and 1 μM A20 are analyzed for absolute IC50 calculations (FIG. 21B), it is clear the compound is a much stronger inhibitor of the EB2-EphB2 interaction whether assessed near the end of association step (blue star), shortly after start of dissociation step (gold star), or by AUC, as all provide absolute IC50 values −1 μM. […] For EphB2-EB2, the slope went from 20° to 10° in the presence of A20 and for EphB4-EB2 from 5° to 3°. The reduced slope later in the association step indicates the A20 compound is specifically affecting accumulation of the stable tetramer.
Addition of compound also altered dissociation kinetics. […] This is referred to as the “unsurmountable” component of the Eph-Ephrin interaction (FIG. 21C). Additionally, AUC data was graphed for these runs (FIG. 21D). […] For EB2-EphB4, the dimer:tetramer ratio was 83:8 in the presence of A20 and was not much different from the no compound control run because it is already a strong dimer-driven interaction. […] A similar though more muted effect of A20 on tetramer accumulation was also observed for the other interactions of immobilized human EphrinB binding to soluble human EphB1 and EphB2 ectodomains (FIG. 22). The inhibitory effect of A20 is strongest on the EB2-EphB2 interaction with absolute IC50 reaching 1 μM, followed by the EB2-EphB1 interaction with absolute IC50-10 μM. […] The “unsurmountable” component of the EB2-EphB1 interaction was-50% of the tetramer species (14:41) whereas that for EB2-EphB2 interaction is-30%.
Further to the experiments listed above, a series of dose-response experiments were conducted to determine the IC50 of a selected A20 chemical (A20-1) on the kinetics of human EphrinB2 ligand ectodomain protein binding to its cognate human EphB1, EphB2, and EphB4 receptor ectodomain proteins. FIG. 74A-74C are representative sensorgrams showing the effect of 0, 0.1, 0.2, 0.4, 0.8, 1.6, and 3.2 μM, concentrations of the 2×HCl salt of A20-I along with a 10 μM max standard (also A20-1) on three different Ephrin-EphB interactions (e.g., EphB1 in FIG. 74A, EphB2 in FIG. 74B and EphB4 in FIG. 74C). […]
A general note: BLI is a label-free optical method that tracks binding on a fibre tip over time.

The nature of series [1]: pharmacokinetics, single IP injection. The class given is in vivo, mouse. Further details: spinal cord AUC0-t / plasma AUC0-t / brain AUC0-t / liver AUC0-t: unit not given here. As to conditions: for biodistribution: IP, mice; for plasma AUC0-t: 24 hr; for Cmax / Tmax: mouse; for Cmax: ip, 20 mg/kg. How it is done:
Further studies were conducted as in vivo experiments to evaluate the effect of A20 when injected into the mouse. To formulate the compound for intraperitoneal (IP) injection, A20 was tested for solubility in various buffers, pH conditions, and with cyclodextrins (e.g. Captisol). The formulation was prepared by first dissolving A20 powder in DMSO and followed by mixing with sunflower seed oil (SSO) prior to administration (in 6% DMSO/94% SSO). […] PK profiling experiments were then conducted with A20 to determine its absorption, distribution, metabolism, and excretion (ADME) properties. Mice were given a single IP injection of 20 mg/kg A20 and after 10, 30, 90, 180, 360, 960, 1440 min, three animals per time point were sacrificed and tissue was collected and subjected to mass spectrometry.
A study was conducted with A20 salt dissolved solely in PBS and injected at 20 mg/kg to match the previously described study of the free-base. […] The results from the brain, spinal cord, and liver tissues are particularly outstanding and indicate that significant levels of A20 salt remain even after the final collection at 24 hr time point.

The mark [2] stands for this setting: Table B, EphrinB2-EphB1, read-out: Relative Association IC50 (300 sec).

Regarding `Oc1c(Br)cc(CN2CCOCC2)c2cccnc12` [Compound 5, 7-bromo-5-(morpholinomethyl)quinolin-8-ol], at EphrinB2-EphB1 (A20 salt, read-out: absolute IC50), the pIC50 is about 5.00. In addition, on EphrinB2-EphB1 (read-out: concentration producing maximum inhibition), the IC (maximum) was 10 µM. The “biodistribution” value in series [1] is “distributes to plasma, brain, and spinal cord”. For the same compound, the “brain AUC0-t” value in series [1] (free base, IP 20 mg/kg) was 6,684. The “spinal cord AUC0-t” value in series [1] (free base, IP 20 mg/kg) is 4,928. Also, the “plasma AUC0-t” value in series [1] (free base, IP 20 mg/kg) is recorded as 14,636. Besides, the peak concentration (Cmax) in series [1] (brain, free base, IP 20 mg/kg, read-out: brain Cmax) is 104 ng/mL and 323 nM; in series [1] (plasma, free base, IP 20 mg/kg, DMSO/SSO, read-out: plasma Cmax) it was 214 ng/mL; in series [1] (plasma, free base, IP 20 mg/kg, read-out: plasma Cmax) it was 665 nM; in series [1] (spinal cord, free base, IP 20 mg/kg, read-out: spinal cord Cmax), 88 ng/mL and 273 nM. Further, the Tmax in series [1] (brain, free base, IP 20 mg/kg, read-out: brain time of Cmax (converted)) is 10 min; in series [1] (plasma, free base, IP 20 mg/kg, read-out: plasma time of Cmax (converted)), 10 min.
Regarding `Oc1c(Br)cc(CN2CCOCC2)c2cccnc12` [Compound 6, 4-((7-bromo-8-hydroxyquinolin-1-ium-5-yl)methyl)morpholin-4-ium chloride], in series [1] (brain, salt in PBS, IP 20 mg/kg, read-out: brain Cmax), the Cmax was 7.03 µM and 2790 ng/mL. For the same compound, in series [1] (liver, salt in PBS, IP 20 mg/kg, read-out: liver Cmax), the Cmax is 22600 ng/mL and 57 µM. Besides, the highest concentration (Cmax) in series [1] (plasma, salt in PBS, IP 20 mg/kg, read-out: plasma Cmax) is 2880 ng/mL and 7.27 µM. Further, the highest concentration (Cmax) in series [1] (spinal cord, salt in PBS, IP 20 mg/kg, read-out: spinal cord Cmax) was 3310 ng/mL and 8.35 µM. Moreover, in series [1] (salt in PBS, IP 20 mg/kg), the “brain AUC0-t” value is on record as 136,933, the “brain time of Cmax” value came to 10 min, the “liver AUC0-t” value is recorded as 1,363,490 and the “plasma time of Cmax” value is 10 min. For the same compound, in series [1] (salt in PBS, IP 20 mg/kg), the “spinal cord AUC0-t” value is recorded as 86,044 and the “plasma AUC0-t” value is 81,039. Moreover, in series [1] (salt vs free-base), the “brain AUC0-t increase over the free-base” value is over 20 fold, the “brain Cmax increase over the free-base” value is reported as over 26 fold, the “plasma AUC0-t increase over the free-base” value was over 5.5 fold and the “plasma Cmax increase over the free-base” value is over 13 fold. Further, in series [1] (salt vs free-base), the “spinal cord AUC0-t increase over the free-base” value is given as over 17 fold and the “spinal cord Cmax increase over the free-base” value is over 37 fold.
`Oc1c(I)cc(CN2CCOCC2)c2cccnc12` [Compound 8, 4-((8-hydroxy-7-iodoquinolin-1-ium-5-yl)methyl)morpholin-4-ium chloride]: at EphrinB2-EphB1 (setting [2]), the pIC50 was 5.94.
Consider `Oc1c(Br)cc(CN2CCN(c3ccc(Br)cc3)CC2)c2cccnc12` [Compound 30, 7-bromo-5-((4-(4-bromophenyl)piperazin-1-ium-1-yl)methyl)-8-hydroxyquinolin-1-ium chloride], for which the pIC50 was 6.80 on EphrinB2-EphB1 (Table B, EphrinB2-EphB1, read-out: Absolute AUC/IC50); 6.48 at EphrinB2-EphB1 (Table B, EphrinB2-EphB1, read-out: Absolute Dissociation IC50 (450 sec)); 7.22 on EphrinB2-EphB1 (Table B, EphrinB2-EphB1, read-out: Relative AUC/IC50); 6.82 and 5.96 on EphrinB2-EphB1 (setting [2]); 7.15 on EphrinB2-EphB1 (Table B, EphrinB2-EphB1, read-out: Relative Dissociation IC50 (450 sec)).
For `Oc1ccc(CN2CCN(Cc3ccc(Br)cc3)CC2)c2cccnc12` [Compound 42, 5-((4-(4-bromobenzyl)piperazin-1-yl)methyl)quinolin-8-ol], the “biodistribution” value in series [1] (listed as QPB4-Bn) is “significantly high levels of compound reach intended tissues (i.e., brain, spinal cord, liver, skin) and persist at high concentrations during the 24 hr period”.
